# Source: ChEMBL document CHEMBL1201862, “PubChem BioAssay data set” (2004)
# Activity calls are given as the source filed them. Cut-off read from the data, not from the text of the source: actives have a measured IC50 and inactives only a lower limit.
# Target: Envelope glycoprotein gp160 (Human immunodeficiency virus 1, UniProt Q6QLK5)
# Assay: cell-free HIV fusion peptide-binding blockers – biochemical, uHTS, fluorescence dequenching, […] (AID 1986)
# Sequence of Envelope glycoprotein gp160 (Q6QLK5 whole entry, the tested form may be a part): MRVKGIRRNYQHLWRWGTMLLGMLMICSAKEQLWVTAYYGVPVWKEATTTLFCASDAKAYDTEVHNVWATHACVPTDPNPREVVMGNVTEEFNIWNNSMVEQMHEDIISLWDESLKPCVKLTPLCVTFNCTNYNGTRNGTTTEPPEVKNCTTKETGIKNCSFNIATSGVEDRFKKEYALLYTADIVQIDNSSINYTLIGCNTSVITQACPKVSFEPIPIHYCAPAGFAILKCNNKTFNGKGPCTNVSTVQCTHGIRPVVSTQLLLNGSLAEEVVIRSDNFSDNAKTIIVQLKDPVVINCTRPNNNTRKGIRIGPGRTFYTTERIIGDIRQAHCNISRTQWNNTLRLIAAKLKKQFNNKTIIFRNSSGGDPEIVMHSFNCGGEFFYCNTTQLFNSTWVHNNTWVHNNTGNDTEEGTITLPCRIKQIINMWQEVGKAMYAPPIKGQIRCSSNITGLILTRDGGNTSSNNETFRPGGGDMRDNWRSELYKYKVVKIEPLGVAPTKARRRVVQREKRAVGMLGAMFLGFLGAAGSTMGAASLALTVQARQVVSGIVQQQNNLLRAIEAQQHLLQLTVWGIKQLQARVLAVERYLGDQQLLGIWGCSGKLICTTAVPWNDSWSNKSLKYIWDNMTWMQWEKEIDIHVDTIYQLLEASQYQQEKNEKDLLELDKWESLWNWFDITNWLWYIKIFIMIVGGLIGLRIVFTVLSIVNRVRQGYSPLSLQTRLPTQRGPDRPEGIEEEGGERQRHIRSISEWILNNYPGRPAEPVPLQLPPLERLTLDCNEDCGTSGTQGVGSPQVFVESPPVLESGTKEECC
compound,measurement,value
Cc1[nH]n(-c2ccccc2)c(=O)c1/C=C1/C(=O)NN(c2ccc(F)c(Cl)c2)C1=O,IC50,12.1 µM (active)
